Assay results published in patent US10344071B2, “Identification of novel anti-fibrotic peptide in C-terminal region of the MET receptor tyrosine kinase” (MUSC Foundation for Research Development, priority 2015, dated 2019).
Ends that are not written are not given here.

Assays:
[1] = tested on: normal LF transfected with MET WT or MET D1398G; test: Collagen, SMA, CTGF in transfected TGFβ-stimulated normal lung fibroblasts, Western blot; format: cell-based, human; details: 48 hours
Description: FIG. 3, comprising FIG. 3A through FIG. 3D, depicts expression of type I collagen, SMA, and CCN2 in normal lung fibroblasts (LF) transfected with MET WT and MET D1398G. Transfected […] lung fibroblasts were serum-starved for 24 hours followed by incubation for 48 hours with recombinant TGFβ (5 ng/ml) and/or HGF (50 ng/ml). FIG. 3A depicts that the cells were collected with lysis buffer and analyzed by Western blot with indicated antibodies including MET as a transfection efficiency control and anti-β-actin antibody as a loading control. FIG. 3B through FIG. 3D depict densitometric analysis of immunoblots for collagen, SMA and CCN2 respectively. Values are the mean and SD from three independent experiments.
Cells were collected and analyzed by immunoblotting as previously described (Bogatkevich et al., J Biol Chem. 2001, 276:45184-45192; Bogatkevich et al., Arthritis Rheum. 2007, 56:3468-3477). Phosphorylation of MET was analyzed using anti-phospho-c-Met [pYpYpY^1230/1234/1235], pY^1349, and pY^1356 antibodies (BioSource International, Inc., Camarillo, Calif.). Total MET was immunobloted using anti-MET (C12) (Santa Cruz Biotechnology, Santa Cruz, Calif.) and anti-MET (25H2) (Cell Signaling, Danvers, Mass.). […]

MET D1398G = biological target: T1, MET D1398G (Homo sapiens, UniProt P08581, D1380G); test: HGF-induced MET tyrosine phosphorylation in transfected LF and AEC; format: cell-based; details: HGF 50 ng/ml
T1 construct: The wild type (WT) full-length c-MET cDNA in pLXSN; expressed in transfected cells; host or cells: lung fibroblasts (LF) and A549 alveolar epithelial cells, infected with recombinant adenovirus (pAdTrack-CMV/AdEasy)
Description: (§1) FIG. 1, comprising FIG. 1A and FIG. 1B, depicts MET tyrosine phosphorylation in lung fibroblasts (LF) and alveolar epithelial cells (AEC). FIG. 1A depicts a time course of MET WT and MET D1398G tyrosine phosphorylation as determined in LF and AEC incubated with HGF (50 ng/ml) for various time points. Cell extracts were immunoblotted with anti-phospho-MET or anti-MET polyclonal antibodies (see details in Materials and Methods). FIG. 1B depicts quantitative results of densitometric analysis of immunoblots. Values are the mean and SD from three independent experiments.
(§2) Cells were collected and analyzed by immunoblotting as previously described (Bogatkevich et al., J Biol Chem. 2001, 276:45184-45192; Bogatkevich et al., Arthritis Rheum. 2007, 56:3468-3477). Phosphorylation of MET was analyzed using anti-phospho-c-Met [pYpYpY^1230/1234/1235], pY^1349, and pY^1356 antibodies (BioSource International, Inc., Camarillo, Calif.). Total MET was immunobloted using anti-MET (C12) (Santa Cruz Biotechnology, Santa Cruz, Calif.) and anti-MET (25H2) (Cell Signaling, Danvers, Mass.). Anti-type I collagen antibody (Southern Biotechnology, Birmingham, Ala.)), anti-CTGF antibody (Santa Cruz Biotechnology, Santa Cruz, Calif.), and anti-smooth-α-actin antibody (Sigma, St. Louis, Mo.) were also used.
(§3) As an initial approach to evaluate the functional consequences of D1398G mutation, HGF-induced MET autophosphorylation was studied in LF and AEC (A549 cell line) transfected either with MET WT or D1398G mutant. MET tyrosine phosphorylation was assessed using anti-phospho-c-Met[pYpYpY^1230/1234/1235], pY^1349, and pY^1356 antibodies. Treatment with HGF induced rapid phosphorylation of MET WT at tyrosine 1230, 1234, and 1235 in both LF and AEC. Maximal phosphorylation was observed within 5 minutes of HGF treatment and decreased by 20 minutes following HGF treatment (FIG. 1). […] The time course of HGF-induced phosphorylation at tyrosine 1356 in LF resembled tyrosine 1230, 1234, and 1235 phosphorylation with maximal levels observed within 5 minutes of HGF treatment. Tyrosine 1356 phosphorylation in AEC appeared to be stronger than in LF with maximal levels observed within 20 minutes of HGF treatment.

MET WT = biological target: T2, MET WT (Homo sapiens, UniProt P08581); test: as above; format: cell-based; details: HGF 50 ng/ml
T2 construct: The wild type (WT) full-length c-MET cDNA in pLXSN; expressed in transfected cells; host or cells: lung fibroblasts (LF) and A549 alveolar epithelial cells, infected with recombinant adenovirus (pAdTrack-CMV/AdEasy)
Description: as §1, §2, §3

Erk1/2 phosphorylation = test: HGF-induced Erk1/2 phosphorylation in transfected LF and AEC; format: cell-based, human; details: 50 ng/ml for 10 min
Description: (§4) FIG. 4, comprising FIG. 4A through FIG. 4D, depicts the effect of HGF on Ras activation and Erk1/2 phosphorylation in lung fibroblasts (LF) and alveolar epithelial cells (AEC). FIG. 4A depicts HGF-induced Erk1/2 phosphorylation in LF and AEC transfected with MET WT and MET D1398G was determined in cells treated with HGF (50 ng/ml) for 10 min. Cell extracts were immunoblotted with anti-phospho-Erk1/2 or anti-Erk1/2, anti-MET, and anti-β-actin antibodies. FIG. 4B depicts densitometric analysis of phospho-Erk1/2 immunoblots from three independent experiments. FIG. 4C and FIG. 4D depict Ras activity in LF and AEC respectively, transfected with MET WT and MET D1398G treated with and without HGF (50 ng/ml) for 10 min.
The phosphorylation of p42/p44 MAPK isoforms was analyzed using anti-phospho-Erk1/2 and Erk1/2 antibodies in accordance with the manufacturer's instructions (Cell Signaling Technology, Danvers, Mass.). Immunoblots were routinely stripped and reblotted with anti-β-actin antibody (Sigma, St. Louis, Mo.) as a loading control.
To investigate whether the D1398G mutation affects MAPK signaling pathways, the Erk1/2 phosphorylation was examined. Basal and HGF-induced Erk1/2 phosphorylation were more prominent in AEC as compared with LF. […] The basal level of nonphosphorylated Erk1/2 in LF and AEC was not affected either by HGF stimulation or by transfection with D1398G mutation.

Ras = Ras Activity Assay (G-LISA, Ras-GTP); format: cell-based, human; details: 50 ng/ml; LF and AEC transfected with MET WT
Description: as §4
G-LISA Kit (Cytoskeleton Inc., Denver, Colo.) was used to measure endogenous Ras-GTP levels. […] Bound Ras-GTP levels were determined by anti-Ras primary antibody followed by horseradish peroxidase-conjugated secondary antibody. A peroxidase substrate was applied, and the plates were read at 450 nm on a spectrophotometer.
HGF-induced phosphorylation of Erk1/2 is mediated by Ras (Campbell, et al., Oncogene, 1998, 17:1395-413). To investigate whether D1398G mutation affects MET-dependent Ras activation, Ras-GTP in LF and in AEC transfected with MET WT and with MET D1398G was measured.

[2] = tested on: scleroderma LF transfected with MET WT or MET D1398G; test: Collagen, SMA, CTGF in transfected scleroderma lung fibroblasts, Western blot; format: cell-based, human; details: 50 ng/ml for 48 hours
Description: FIG. 2, comprising FIG. 2A and FIG. 2B, depicts Expression of type I collagen, SMA, and CCN2 in scleroderma lung fibroblasts (LF) transfected with MET WT and MET D1398G. FIG. 2A depicts transfected SSc LF were serum-starved for 24 hours followed by incubation for 48 hours with recombinant HGF (50 ng/ml). The cells were collected with lysis buffer and analyzed by Western blot with indicated antibodies including MET as a transfection efficiency control. Anti-β-actin antibody was used as a loading control. FIG. 2B depicts quantitative results of densitometric analysis of immunoblots. Values are the mean and SD from four independent experiments.
as §2, with “used. […]” for “used.”

[3] = tested on: TGFβ-stimulated lung fibroblasts; test: Collagen in TGFβ-stimulated lung fibroblasts, immunoblot; format: cell-based; details: 1 μg/ml for 24 h; TGFβ 5 ng/ml
Description: FIG. 18 depicts M5 peptide inhibits collagen in TGFβ-stimulated lung fibroblasts. Cells were incubated with and without TGFβ (5 ng/ml) and M5 peptide (1 μg/ml) for 24 h and analyzed by immunoblotting using anti-collagen type I antibody. Beta-actin was used as a loading control.
A peptide containing just the M5 sequence (TRPAS (SEQ ID NO: 4)) was generated and was tested for its effect on collagen.

[4] = tested on: bleomycin-induced pulmonary fibrosis; details: mouse, in vivo
Description: FIG. 14A depicts representative histologic findings of lung inflammation and fibrosis. […] FIG. 14B depicts a quantitative evaluation of fibrotic changes (Ashcroft scores), n=32 (8 mice per group).
Mice (n=6), C57BL/6 male were used in this study. Mice were maintained in animal quarters specially designated for pathogen-free mice and were provided with food and water ad libitum. Lung injury was induced by intratracheal instillation of bleomycin (2 U/kg in saline) under isoflurane anesthesia. Control mice received same volume of saline. […] Control mice received 10 mg/kg scrambled peptide. Animals were sacrificed in 3 weeks, and lungs were harvested and processed for tissue staining.
Sacrificed mice were subjected to midline thoracotomy. […]
To evaluate the stages of lung fibrosis, multiple sections from each lung were stained with Hematoxylin and eosin (H & E staining) or with trichrome staining for collagen and other extracellular matrix proteins. Fibrosis quantification was performed by using 0 (normal) to 8 (total fibrosis) Ashcroft scale (Ashcroft, et al., J Clin Pathol, 1988, 41:467-470). Morphological changes such as the thickness of alveolar septa, accumulation of vascular component and connective tissue, infiltration of inflammatory cells were analyzed. For histological evaluation each specimens were divided in 10 non-overlapping fields and scored independently. […]

HGF: recombinant hepatocyte growth factor, ligand of the MET receptor
levels of collagen, SMA and CTGF [1]: decreased the levels of collagen, SMA and CTGF | tyrosine phosphorylation of MET D1398G in contrast to MET WT (MET D1398G; LF and AEC): decreased and delayed | time of maximal phosphorylation at tyrosine 1356 (MET D1398G; MET D1398G): 1 h | time of maximal phosphorylation at tyrosine 1356 (MET WT; AEC): ≤ 20 min | time of maximal phosphorylation at tyrosine 1356 (MET WT; LF): ≤ 5 min | time of maximal phosphorylation at tyrosine 1230, 1234, and 1235 (MET WT; LF and AEC): ≤ 5 min | HGF-induced Erk1/2 phosphorylation, MET WT compared with MET D1398G cells (Erk1/2 phosphorylation): notably higher | Erk1/2 phosphorylation (Erk1/2 phosphorylation; LF and AEC transfected with MET WT or MET D1398G): further induced Erk1/2 phosphorylation | total Ras activity (Ras): significant increase in total Ras activity | expression of collagen, SMA, and CTGF ([2]; scleroderma LF transfected with MET D1398G): not in LF transfected with mutant MET D1398G | expression of collagen, SMA, and CTGF ([2]; scleroderma LF transfected with MET WT): reduced expression of collagen, SMA, and CTGF

TRPAS (M5 Peptide) [C-terminal fragment of the MET receptor]
level of collagen versus fibroblasts stimulated with TGFβ [3]: reduced level of collagen

TRPASFWETS [M10]
cell viability measured by the ATP-dependent assay (cell viability): does not affect cell viability | lung histology in control mice that received saline and peptide [4]: normal septa, vascular components, and connective tissue
